# Experimental data published in patent US9359298B2, “Cajanine structure analogous compound, preparation method and use” (INSTITUTE OF MEDICINAL BIOTECHNOLOGY, CHINESE ACADEMY OF …, priority 2011, dated 2016).
# Where two headings read alike, the source gives them in different places.
# Key:
# [1] = system: Influenza A virus (hanfang359/95); experiment: Determination of anti-influenza virus activity (CPE in MDCK cells); format: cell-based; conditions: for IC50: Influenza A virus, MDCK, 36 h; for anti-influenza virus activities compared with the lead compound cajanine: statement in words
# Coxsackie virus B6 = experiment: Coxsackie virus activity assay (CPE in Vero cells); format: cell-based; conditions: for IC50: Vero
# HCV = experiment: Anti-hepatitis C virus (HCV) activity assay (HCV RNA in Huh7.5 cells); format: cell-based; conditions: for EC50: Hepatitis C virus, Huh7.5, 72 h, read-out: HCV EC50; for anti-HCV viral activity: statement in words
# Description: Inoculate Huh7.5 cells into 96-well plates to a density of 3×10^4 cells/cm^2, culture for 24h, infect the cells with 45 IU/cell HCV supernatant, meanwhile, add drug solutions or solvent control for treatment.
# HIV-1 III B virus = experiment: Anti-HIV activity assay (P24 antigen in MT-4 cells); format: cell-based; conditions: for IC50: Human immunodeficiency virus 1, MT4, 96 h, read-out: HIV IC50; for anti-HIV viral activity: statement in words
# PC12 cells [2] = experiment: Neuroprotective activity assay, serum-deprived injury to PC12 cells (MTT); format: cell-based; conditions: for viability at 10 µM: Rattus norvegicus, PC-12, 48 h, read-out: serum-deprived (surviving PC12 cells, MTT 570 nm); for protective effect on serum-deprived injury to PC12 cells: statement in words
# Outline: (§1)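 PC12 cells on poly-lysine plated 24 h, then injured 48 h by serum-free DMEM or 4 μM rotenone with 10 μM test compound present during injury. Viability read by MTT (4 h), absorbance 570 nm.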
# PC12 cells [3] = experiment: Neuroprotective activity assay, rotenone injury to PC12 cells (MTT); format: cell-based; conditions: for viability at 10 µM: Rattus norvegicus, PC-12, 48 h, read-out: rotenone (surviving PC12 cells, MTT 570 nm); for protective effect on rotenone injury to PC12 cells: statement in words
# Outline: as §1
# ovariectomized rats = experiment: Protective effect on bone osteoporosis in ovariectomized rats; format: in vivo; conditions: compared with raloxifene
# Description: The present invention also relates to anti-osteoporotic effect of said compounds. According to literature reports, pigeonpea stilbene-type compounds belong to phytoestrogens, the anti-osteoporosis effect of natural products has to do with their estrogen-like effects.
# [4] = read-out: COX-B6 IC50, Vero cells, about 100TCID50, CPE, Reed-Muench
# [5] = 10 μM test compound, 48 h, Control 100.0 ± 9.2, Model 69.3 ± 4.1
# [6] = 10 μM test compound, 4 μM rotenone, 48 h, Control 100.0 ± 8.9, Model 73.2 ± 7.8
# [7] = Huh7.5 cells, 72 h, HCV RNA by RT-PCR, Reed-Muench
# [8] = MT-4 cells, HIV-1 III B 100TCID50, 96 h, P24 antigen
Compound,IC50 [1],IC50 (Coxsackie virus B6; [4]),viability at 10 µM (PC12 cells [2]; [5]),viability at 10 µM (PC12 cells [3]; [6]),EC50 (HCV; [7]),IC50 (HIV-1 III B virus; [8]),also measured
"COc1cc(/C=C/c2ccccc2)c(C(=O)O)c(O)c1CC=C(C)C [Compound 1, 2-hydroxy-3-isopentenyl-4-methoxy-6-[(E)-styryl]benzoic acid]",8.9 µg/mL,0.9 µg/mL,19.3 ± 1.6%,72.3 ± 5.9%,–,–,"EC50 (HCV): 1.21 µg/mL; anti-HCV viral activity (HCV): stronger anti-HIV, HCV viral activities; IC50 (HIV-1 III B virus): 0.27 µg/mL; anti-HIV viral activity (HIV-1 III B virus): stronger anti-HIV, HCV viral activities; in vivo anti-osteoporotic effect (ovariectomized rats): stronger in vivo anti-osteoporotic effect than clinical drug raloxifene"
"COc1cc(/C=C/c2ccccc2)c(C(=O)O)c(OC(=O)c2cccnc2)c1CC=C(C)C [Compound 24k, 2-(pyridyl-3-formylox)-3-isopentenyl-4-methoxy-6-[(E)-styryl]benzoic acid]",3.55 µg/mL,1.36 µg/mL,89.6 ± 2.3%,85.6 ± 2.1%,4.87 µg/mL,2.17 µg/mL,protective effect on serum-deprived injury to PC12 cells (PC12 cells [2]): the strongest activities; protective effect on rotenone injury to PC12 cells (PC12 cells [3]): the strongest activities
"COc1cc(/C=C/c2ccccc2)c(C(=O)O)c(OC(=O)CN(C)C)c1CC=C(C)C [Compound 24n, 2-(N,N-dimethylacetyloxy)-3-isopentenyl-4-methoxy-6-[(E)-styryl]benzoic acid]",7.21 µg/mL,1.35 µg/mL,75.8 ± 3.2%,79.8 ± 5.6%,1.97 µg/mL,3.12 µg/mL,–
COc1cc(/C=C/c2ccccc2)c(C(=O)O)c(OC(=O)c2cnc[nH]2)c1CC=C(C)C [Compound 24q],1.98 µg/mL,1.35 µg/mL,92.3 ± 1.2%,90.5 ± 5.6%,1.54 µg/mL,2.85 µg/mL,protective effect on serum-deprived injury to PC12 cells (PC12 cells [2]): the strongest activities; protective effect on rotenone injury to PC12 cells (PC12 cells [3]): the strongest activities
"COc1cc(/C=C/c2ccccc2)c(C(=O)O)c(OCN)c1CC=C(C)C [Compound 26b, 2-aminomethoxy-3-isopentenyl-4-methoxy-6-[(E)-styryl]benzoic acid]",3.65 µg/mL,3.54 µg/mL,88.2 ± 4.1%,89.7 ± 6.3%,5.66 µg/mL,7.83 µg/mL,–
"COc1cc(/C=C/c2ccccc2)c(C(=O)O)c(OCC2CNCCN2)c1CC=C(C)C (stereo not drawn) [Compound 26e, 2-(piperazin-2-yl)methoxy-3-isopentenyl-4-methoxy-6-[(E)-styryl]benzoic acid]",2.31 µg/mL,1.32 µg/mL,85.6 ± 2.9%,87.6 ± 5.6%,2.28 µg/mL,2.77 µg/mL,–
"COc1cc(/C=C/c2ccccc2)c(C(=O)O)c(OC(=N)N)c1CC=C(C)C [Compound 27b, 2-iso-ureido-3-isopentenyl-4-methoxy-6-[(E)-styryl]benzoic acid]",2.14 µg/mL,1.24 µg/mL,91.5 ± 6.1%,92.3 ± 2.6%,1.83 µg/mL,4.91 µg/mL,protective effect on serum-deprived injury to PC12 cells (PC12 cells [2]): the strongest activities; protective effect on rotenone injury to PC12 cells (PC12 cells [3]): the strongest activities
"COc1cc(/C=C/c2ccccc2)c(C(=O)O)c(OC(=O)NN)c1CC=C(C)C [Compound 29b, 2-Hydrazinoformyloxy-3-isopentenyl-4-methoxy-6-[(E)-styryl]benzoic acid]",1.21 µg/mL,–,–,–,–,–,IC50 (Coxsackie virus B6; read-out: COX-B6 IC50): 0.67 µg/mL; EC50 (HCV): 1.36 µg/mL; IC50 (HIV-1 III B virus): 1.88 µg/mL; viability at 10 µM (PC12 cells [2]): 74.5 ± 4.6%; viability at 10 µM (PC12 cells [3]): 78.9 ± 5.6%
"COc1cc(/C=C/c2ccccc2)c(C(=O)O)c(OC(=O)C(=O)O)c1CC=C(C)C [Compound 31b, 2-carboxyformyloxy-3-isopentenyl-4-methoxy-6-[(E)-styryl]benzoic acid]",0.54 µg/mL,1.21 µg/mL,88.6 ± 2.6%,80.5 ± 6.4%,0.99 µg/mL,2.8 µg/mL,"anti-influenza virus activities compared with the lead compound cajanine [1]: significantly stronger than the lead compound cajanine; anti-HCV viral activity (HCV): stronger anti-HIV, HCV viral activities; anti-HIV viral activity (HIV-1 III B virus): stronger anti-HIV, HCV viral activities"
"COc1cc(/C=C/c2ccccc2)c(C(N)=O)c(O)c1CC=C(C)C [Compound 32, 2-hydroxy-3-isopentenyl-4-methoxy-6-[(E)-styryl]benzamide]",0.21 µg/mL,0.54 µg/mL,94.5 ± 2.3%,92.3 ± 1.2%,1.37 µg/mL,0.16 µg/mL,anti-influenza virus activities compared with the lead compound cajanine [1]: significantly stronger than the lead compound cajanine; protective effect on serum-deprived injury to PC12 cells (PC12 cells [2]): the strongest activities; protective effect on rotenone injury to PC12 cells (PC12 cells [3]): the strongest activities
"CC(C)=CCc1c(O)cc(/C=C/c2ccccc2)c(C(=O)O)c1O [Compound 33, 2,4-dihydroxy-3-isopentenyl-6-[(E)-styryl]benzoic acid]",–,–,–,–,–,–,"Influenza A virus (hanfang359/95) IC50 [1]: 2.35 µg/mL; COX-B6 IC50 (Coxsackie virus B6; Vero cells, about 100TCID50, CPE, Reed-Muench): 2.31 µg/mL; HCV EC50 (HCV; [7]): 1.55 µg/mL; HIV IC50 (HIV-1 III B virus; [8]): 2.01 µg/mL; serum-deprived (surviving PC12 cells, MTT 570 nm) (PC12 cells [2]; [5]): 16.8 ± 0.4; rotenone (surviving PC12 cells, MTT 570 nm) (PC12 cells [3]; [6]): 75.6 ± 2.1"
"COC(=O)c1c(CCc2ccccc2)cc(OC)c(CC=C(C)C)c1O [Compound 36, methyl 2-hydroxy-3-isopentenyl-4-methoxy-6-phenethyl benzoate]",> 2.46 µg/mL,> 2.46 µg/mL,41 ± 15.4%,72.2 ± 12.2%,3.86 µg/mL,1.06 µg/mL,–
"COc1cc(CCc2ccccc2)c(C(=O)O)c(O)c1CC=C(C)C [Compound 37, 2-hydroxy-3-isopentenyl-4-methoxy-6-phenethyl benzoic acid]",> 22.2 µg/mL,> 2.05 µg/mL,29 ± 11.2%,60.4 ± 7.8%,12.2 µg/mL,2.09 µg/mL,–
methyl 2-hydroxy-3-isopentenyl-4-methoxy-6-(4′-methyl-cyclohexylenemethyl)benzoate [Compound 8n],–,–,–,–,–,–,"Influenza A virus (hanfang359/95) IC50 [1]: >2.06 µg/mL; COX-B6 IC50 (Coxsackie virus B6): >6.17 µg/mL; HCV EC50 (HCV; [7]): 1.06 µg/mL; HIV IC50 (HIV-1 III B virus; [8]): 2.17 µg/mL; serum-deprived (surviving PC12 cells, MTT 570 nm) (PC12 cells [2]; [5]): 53.7 ± 3.8; rotenone (surviving PC12 cells, MTT 570 nm) (PC12 cells [3]; [6]): 78.0 ± 9.2"
